Laboratory results reported in patent US8796292B2, “Selective antibacterials for clostridium difficile infections” (GLSynthesis Inc., priority 2009, dated 2014).
Converted amounts (≈) assume the structure as drawn. Where two headings read alike, the source gives them in different places.

Experiments:
[1] = test system: C. diff. (ATCC43255); assay: clindamycin-induced C. diff. infection model in Syrian golden hamsters; format: in vivo; conditions: for % Survivors at 120 hr / Survivors at 24 hr / Survivors at 48 hr / Survivors at 66 hr / Survivors at 72 hr / Survivors at 96 hr: n = 6 hamsters
Source text: Compound 359E was given orally as a suspension in 1% carboxymethylcellulose to Syrian Golden hamsters, pretreated subcutaneously with clindamycin and infected orally with C. diff. (ATCC43255) as described in Table 5.

[2] = test system: L. casei; assay: agar dilution MIC assay of anaerobic bacteria; format: cell-based, Lactobacillus casei; conditions: Lacticaseibacillus casei
Procedure: (§1) Each compound was assayed against a panel of anaerobic bacteria in culture, consisting of Gram-positive organisms, such as Lactobacilli, Bifidobacteria, Clostridium spp., and Gram-negative bacteria, such as […] fragilis spp., according to guidelines of the Clinical and Laboratory Standards Institute (CLSI document M11-A7, CLSI, Wayne, Pa., 2007). […] One tenth mL of diluted bacteria containing 500-1000 colony-forming units (CFU) was plated and spread, and the plates incubated at 37° C. for 24-48 hours. MIC (minimum inhibitory concentration) is equivalent to the lowest concentration in μg/ml at which growth, i.e., colony formation, is not observed. […] Bacteria were assayed using a reference agar dilution method. Drug dilutions and drug-supplemented agar plates were prepared manually. The test organisms were maintained frozen at −80° C. The isolates were sub-cultured on Supplemented Brucella Agar (SBA) plates in a Bactron II anaerobic chamber and incubated for 48 hours at 35-36° C. in the Bactron II anaerobe chamber. Following inoculation, the drug-supplemented plates were incubated at 35° C. for 48 hours in the anaerobic environment (5% hydrogen, 5% carbon dioxide, 90% nitrogen) of the Bactron II. The MIC in μg/ml was read per Clinical and Laboratory Standards Institute guidelines.

[3] = test system: Bi. brevi; assay: agar dilution MIC assay of anaerobic bacteria; format: cell-based, Bifidobacterium brevi
Procedure: as §1

[4] = test system: L. acidophilus; assay: agar dilution MIC assay of anaerobic bacteria; format: cell-based; conditions: Lactobacillus acidophilus
Procedure: as §1

[5] = test system: Ba. fragilis; assay: agar dilution MIC assay of anaerobic bacteria; format: cell-based; conditions: Bacteroides fragilis
Procedure: as §1

[6] = test system: E. lentum; assay: agar dilution MIC assay of anaerobic bacteria; format: cell-based, Eubacterium lentum; conditions: Eggerthella lenta, read-out: MIC
Procedure: as §1

[7] = test system: Bi. longum; assay: agar dilution MIC assay of anaerobic bacteria; format: cell-based, Bifidobacterium longum; conditions: Bifidobacterium longum, read-out: MIC
Procedure: as §1

[8] = test system: C. difficile; assay: agar dilution MIC assay of anaerobic bacteria; format: cell-based, Clostridium difficile; conditions: for MIC: Clostridioides difficile, read-out: MIC
Procedure: as §1

For `O=c1[nH]c(NCc2ccc(Cl)c(Cl)c2)nc2ncn(CCCCCN3CCOCC3)c12` [Compound 359E, 7-[5-(N-morpholinyl)pentyl]-2-(3,4-dichlorobenzylamino)-6-oxopurine], which “% Survivors at 120 hr” value ([1]; 25 mg/kg PO bid for 3 days) is on record?
The value was 100%.

What about the “Survivors at 24 hr” value ([1]; 25 mg/kg PO bid for 3 days) of the same compound?
Its value is 6.

What about the “Survivors at 48 hr” value ([1]; 25 mg/kg PO bid for 3 days) of the same compound?
Its value is 6.

What about the “Survivors at 66 hr” value ([1]; 25 mg/kg PO bid for 3 days) of the same compound?
Its value is 6.

What about the “Survivors at 72 hr” value ([1]; 25 mg/kg PO bid for 3 days) of the same compound?
Its value is 6.

And the “Survivors at 96 hr” value ([1]; 25 mg/kg PO bid for 3 days)?
Its value is 6.

And the “% Survivors at 120 hr” value ([1]; 50 mg/kg PO bid for 3 days)?
The value was 100%.

And the “Survivors at 24 hr” value ([1]; 50 mg/kg PO bid for 3 days)?
The value was 6.

What about the “Survivors at 48 hr” value ([1]; 50 mg/kg PO bid for 3 days) of the same compound?
Its value is 6.

And the “Survivors at 66 hr” value ([1]; 50 mg/kg PO bid for 3 days)?
Its value is 6.

What about the “Survivors at 72 hr” value ([1]; 50 mg/kg PO bid for 3 days) of the same compound?
Its value is 6.

And the “Survivors at 96 hr” value ([1]; 50 mg/kg PO bid for 3 days)?
The value was 6.

What about the “protection from lethal infection with C. diff. (in words)” value ([1]; oral suspension in 1% carboxymethylcellulose, twice daily) of the same compound?
The value was “protected hamsters from lethal infection”.

What about the MIC ([2]; Strain no. 1722 (ATCC strain), Table 3) of the same compound?
Its MIC is 16 µg/mL (≈ 34.4 µM).

What about the MIC ([3]; Bifidobacterium breve, Bi. Breve, Strain no. 3967 (ATCC strain), Table 3) of the same compound?
The MIC was > 32 µg/mL.

And the MIC ([4]; Strain no. 0681, Table 3)?
The MIC was 2 µg/mL (≈ 4.3 µM).

What about the MIC ([5]; B. fragilis, Micromyx Number 0123 (ATCC strain), Table 2) of the same compound?
Its MIC is > 32 µg/mL.

And the MIC ([5]; B. fragilis, Strain no. 0123 (ATCC strain), Gram-negative (control), Table 3)?
Its MIC is > 32 µg/mL.

And the MIC ([6]; Eu. Lentum, Strain no. 1274 (ATCC strain), Table 3)?
The MIC was > 32 µg/mL.

And the MIC ([7]; Bi. Longum, Strain no. 3968 (ATCC strain), Table 3)?
Its MIC is > 32 µg/mL.

And the MIC ([8]; C. diff. Strain no. 18285, Table 4)?
The MIC was 8 µg/mL (≈ 17.2 µM).

And the MIC ([8]; C. diff. Strain no. 19265, Table 4)?
The MIC was 8 µg/mL (≈ 17.2 µM).

And the MIC ([8]; C. diff. Strain no. 19273, Table 4)?
Its MIC is 8 µg/mL (≈ 17.2 µM).

What about the MIC ([8]; C. diff. Strain no. 19281, Table 4) of the same compound?
The MIC was 8 µg/mL (≈ 17.2 µM).

What about the MIC ([8]; C. diff. Strain no. 19291, Table 4) of the same compound?
Its MIC is 4 µg/mL (≈ 8.6 µM).

And the MIC ([8]; C. diff. Strain no. 19369, Table 4)?
The MIC was 8 µg/mL (≈ 17.2 µM).

And the MIC ([8]; C. diff. Strain no. 19382, Table 4)?
Its MIC is 2 µg/mL (≈ 4.3 µM).

And the MIC ([8]; C. diff. Strain no. 19540, Table 4)?
Its MIC is 4 µg/mL (≈ 8.6 µM).

What about the MIC ([8]; C. diff. Strain no. 19580, Table 4) of the same compound?
The MIC was 2 µg/mL (≈ 4.3 µM).

What about the MIC ([8]; C. diff. Strain no. 19680, Table 4) of the same compound?
Its MIC is 8 µg/mL (≈ 17.2 µM).

What about the MIC ([8]; C. diff. Strain no. 19681, Table 4) of the same compound?
Its MIC is 8 µg/mL (≈ 17.2 µM).

What about the MIC ([8]; C. diff. Strain no. 19683, Table 4) of the same compound?
The MIC was 8 µg/mL (≈ 17.2 µM).

What about the MIC ([8]; C. diff. Strain no. 19687, Table 4) of the same compound?
Its MIC is 8 µg/mL (≈ 17.2 µM).

And the MIC ([8]; C. diff. Strain no. 20066, Table 4)?
The MIC was 8 µg/mL (≈ 17.2 µM).

What about the MIC ([8]; C. diff. Strain no. 20152, Table 4) of the same compound?
The MIC was 8 µg/mL (≈ 17.2 µM).

And the MIC ([8]; C. diff. Strain no. 20307, Table 4)?
The MIC was 8 µg/mL (≈ 17.2 µM).

And the MIC ([8]; C. diff. Strain no. 20494, Table 4)?
The MIC was 8 µg/mL (≈ 17.2 µM).

What about the MIC ([8]; C. diff. Strain no. 20680, Table 4) of the same compound?
The MIC was 8 µg/mL (≈ 17.2 µM).

What about the MIC ([8]; C. diff. Strain no. 20934, Table 4) of the same compound?
The MIC was 2 µg/mL (≈ 4.3 µM).

And the MIC ([8]; C. diff. Strain no. 21099, Table 4)?
Its MIC is 8 µg/mL (≈ 17.2 µM).

And the MIC ([8]; C. diff., Micromyx Number 3579, Table 2)?
The MIC was 2 µg/mL (≈ 4.3 µM).

What about the MIC ([8]; C. diff., Micromyx Number 3580, Table 2) of the same compound?
The MIC was 2 µg/mL (≈ 4.3 µM).

What about the MIC ([8]; C. diff., Micromyx Number 3581, Table 2) of the same compound?
Its MIC is 2 µg/mL (≈ 4.3 µM).

What about the MIC ([8]; C. diff., Micromyx Number 3582 (ATCC strain), Table 2) of the same compound?
The MIC was 2 µg/mL (≈ 4.3 µM).

And the MIC ([8]; C. diff., Strain no. 3580, Table 3)?
The MIC was 4 µg/mL (≈ 8.6 µM).

And the MIC ([8]; C. diff., Strain no. 3581, Table 3)?
Its MIC is 2 µg/mL (≈ 4.3 µM).

And the MIC ([8]; C. diff., Strain no. 3582, Table 3)?
Its MIC is 8 µg/mL (≈ 17.2 µM).

What about the MIC ([8]; C. diff., Strain no. 3584, Table 3) of the same compound?
Its MIC is 2 µg/mL (≈ 4.3 µM).

What about the MIC ([8]; C. diff., Strain no. 3585, Table 3) of the same compound?
The MIC was 4 µg/mL (≈ 8.6 µM).

And the MIC ([8]; C. diff., Strain no. 3586, Table 3)?
The MIC was 2 µg/mL (≈ 4.3 µM).

And the MIC ([8]; C. diff., Strain no. 3587, Table 3)?
Its MIC is 4 µg/mL (≈ 8.6 µM).

And the MIC ([8]; C. diff., Strain no. 3588, Table 3)?
Its MIC is 0.5 µg/mL (≈ 1.07 µM).

What about the MIC ([8]; C. diff., Strain no. 3589, Table 3) of the same compound?
Its MIC is 4 µg/mL (≈ 8.6 µM).

What about the MIC ([8]; C. diff., Strain no. 4381 (ATCC strain), Table 3) of the same compound?
Its MIC is 2 µg/mL (≈ 4.3 µM).

And the “potency and selectivity against C. diff. versus other Gram-positive anaerobes (in words)” value ([8]; summary of MIC panels, Tables 1 and 3)?
Its value is “best profile”.

How did the MIC ([2]; Micromyx Number 1722, Table 1) turn out when `CCc1cc(Nc2nc3ncn(CCCCCOC)c3c(=O)[nH]2)ccc1C` [Compound 315C] was run?
Its MIC is 32 µg/mL (≈ 86.6 µM).

And the MIC ([3]; Bifidobacterium, Bi. brevi, Micromyx Number 3967, Table 1)?
The MIC was > 32 µg/mL.

What about the MIC ([4]; Micromyx Number 0681, Table 1) of the same compound?
Its MIC is 16 µg/mL (≈ 43.3 µM).

And the MIC ([5]; Ba. fragilis, Micromyx Number 0123 (ATCC strain), Gram negative, Table 1)?
Its MIC is > 32 µg/mL.

And the MIC ([6]; E. lentum, Micromyx Number 1274, Table 1)?
The MIC was > 32 µg/mL.

What about the MIC ([7]; Bi. longum, Micromyx Number 3968, Table 1) of the same compound?
Its MIC is > 32 µg/mL.

What about the MIC ([8]; C. difficile, Micromyx Number 1209, Table 1) of the same compound?
Its MIC is 16 µg/mL (≈ 43.3 µM).

What about the MIC ([8]; C. difficile, Micromyx Number 3579, Table 1) of the same compound?
Its MIC is 16 µg/mL (≈ 43.3 µM).

And the MIC ([8]; C. difficile, Micromyx Number 3580, Table 1)?
The MIC was 8 µg/mL (≈ 21.7 µM).

And the MIC ([8]; C. difficile, Micromyx Number 3581, Table 1)?
The MIC was 8 µg/mL (≈ 21.7 µM).

What about the MIC ([8]; C. difficile, Micromyx Number 3582, Table 1) of the same compound?
Its MIC is > 32 µg/mL.

What about the MIC ([8]; C. difficile, Micromyx Number 3584, Table 1) of the same compound?
Its MIC is 8 µg/mL (≈ 21.7 µM).

And the MIC ([8]; C. difficile, Micromyx Number 3585, Table 1)?
Its MIC is 16 µg/mL (≈ 43.3 µM).

And the MIC ([8]; C. difficile, Micromyx Number 3586, Table 1)?
Its MIC is 8 µg/mL (≈ 21.7 µM).

What about the MIC ([8]; C. difficile, Micromyx Number 3587, Table 1) of the same compound?
The MIC was 8 µg/mL (≈ 21.7 µM).

What about the MIC ([8]; C. difficile, Micromyx Number 3588, Table 1) of the same compound?
The MIC was 4 µg/mL (≈ 10.8 µM).

And the MIC ([8]; C. difficile, Micromyx Number 3589, Table 1)?
Its MIC is 16 µg/mL (≈ 43.3 µM).

What about the MIC ([8]; C. difficile, Micromyx Number 3590, Table 1) of the same compound?
The MIC was 8 µg/mL (≈ 21.7 µM).

What about the MIC ([8]; C. difficile, Micromyx Number 3591, Table 1) of the same compound?
Its MIC is 8 µg/mL (≈ 21.7 µM).

And the MIC ([8]; C. difficile, Micromyx Number 3593, Table 1)?
The MIC was 16 µg/mL (≈ 43.3 µM).

And the MIC ([8]; C. difficile, Micromyx Number 3594, Table 1)?
Its MIC is 8 µg/mL (≈ 21.7 µM).

What about the MIC ([8]; C. difficile, Micromyx Number 3595, Table 1) of the same compound?
Its MIC is 8 µg/mL (≈ 21.7 µM).

And the MIC ([8]; C. difficile, Micromyx Number 4381 (ATCC strain), Table 1)?
Its MIC is 8 µg/mL (≈ 21.7 µM).
